# Results: patent publication US20070190651A1, “Myogenic Development and Protection of Stem Cells Against Inflammation and Apoptosis By Statins and Isoprenoid Pathway Inhibitors” (Board of Regents of the University of Texas System, priority 2006, published 2007)
# Entries after “also recorded” stand apart in the source; their conditions may differ. Residues, ends and D or L forms follow the SMILES beside them. *: point of attachment. Cbz = O=C(OCc1ccccc1)*
# Assays:
# [1] = test system: iNOS; experiment: Immunoblotting for iNOS protein in cytokine-stimulated H9c2 cardiac myoblasts; format: cell-based, rat; conditions: for effect on simvastatin inhibition of cytokine-induced iNOS protein expression: added to simvastatin + IL-1α or TNF-α
# Protocol: Cell cultures. H9c2 cells purchased from American Type Culture Collection (ATCC, Rockville, Md.) are spontaneously immortalized ventricular myoblasts from the rat embryo, with preservation of several electrical and biochemical characteristics found in adult cardiomyocytes. They were cultured in DMEM medium (ATCC) supplemented with 10% heat-inactivated fetal bovine serum (FBS) in 95% air and 5% CO2 at 37° C. […] After certain time intervals, 100 μL/well culture media were collected for determination of nitrite production.
# Immunoblotting. Total proteins were isolated from rat cardiac myoblasts (H9c2 cells) or embryonic stem cells in an ice-cold lysis buffer containing 10 mmol/L Tris (tris(hydroxymethyl)aminomethane) (pH 7.4), 1% sodium dodecyl sulfate (SDS) and 1× protease inhibitor (1 mmol/L sodium orthovanadate). Proteins (15 μg/lane) were separated under the reducing conditions (125 mM Tris pH 6.8, 4% SDS, 10% glycerol, 0.006% bromophenol blue, 2% β-mercaptoethanol) by electrophoresis onto 5-10% SDS-polyacrylamide gel and electro-blotted to nitrocellulose membranes (Osmonics, Westborough, Mass.). The membranes were reversibly stained with Ponceau red (Sigma) to verify equal protein loading and/or transfer. After blocking in Tris-buffered saline (0.2 M Tris and 8% NaCl) containing 5% non-fat powdered milk and 0.1% Tween 20 for 1 hour at room temperature, the membranes were incubated overnight at 4° C. with following primary antibodies to (a) iNOS (Transduction Laboratories, Lexington, Ky.; BD Biosciences); (b) NF-κB p65/rel (Santa Cruz Biotechnologies, Santa Cruz, Calif.); (c) ser^32-phosphorylated inhibitor IκBα (Santa Cruz); (d) Bad (BD Biosciences, San Jose, Calif.); (e) Bcl-xL (BD Biosciences); (f) proliferating cell nuclear antigen (PCNA; BC Biosciences); (g) ryanodine receptor (Santa Cruze Biotechnology, Inc., Santa Cruz, Calif.); (h) α-sarcomeric actinin (Sigma); (i) myocardin A (developed by immunizing rabbits with a synthetic myocardin A peptide); (j) Tie-2 (Santa Cruz); (k) manganese superoxide dismutase (Santa Cruz); and (1) β-tubulin (Sigma). The blots were incubated with horseradish peroxidase-coupled secondary antibodies, washed and developed by using a SuperSignal West Pico Chemiluminescent Substrate Kit (Pierce, Rockford, Ill.). Intensity of each immunoreactive protein band was quantified by densitometric analysis. Cytokine-stimulated RAW 264.7 cells (Transduction Laboratories, Lexington, Ky.) were used as positive controls.
# [2] = test system: β-adrenergic receptors; experiment: Edge-motion detection of mESC-derived contractile myogenic cells; format: cell-based, murine
# Protocol: FIG. 11 is a series of graphs showing edge-motion detection of mESC-derived contractile myogenic cells untreated (upper) or treated with isoproterenol (10 ng/ml) in the absence (middle) or presence (lower) of propanolol (25 ng/ml).
# hESC grown in DMEM media with 10% fetal bovin serum and a group of growth factors were induced to differentiate in a hang-drop 3D cell culture system. hESCs from two (H1 or H9) lines were cultured with a mouse fetal fibroblast feeder layer. After forming EBs in the hanging-drop 3D system they were replated in 12-well plates. […] Surrounding the beating colonies, the cells developed a blood vessel-like structure (FIG. 10). Using the edge-motion detection technique, a single beating myogenic cell within the developing EBs was recorded. This provides a functional marker showing the differentiational potential in cardiomyogenesis.
# [3] = test system: murine embryonic stem cells; format: cell-based; conditions: day 12
# Protocol: At day 12, the number of contracting EB outgrowths (Panel A) and extension of beating area (Panel B) were detrmined by morphometry. The results were plotted as percentages of the total EBs counted in each well and shown as the mean ±SD for each of the 3 separate experiments. *, P<0.05 vs untreated control; #, P<0.05 vs simvastatin-treated control.
# The murine ESC (mESC) line CCE was obtained from American Type Culture Collection (ATCC, Rockville, Md.). Murine ESCs were cultured without feeder cells in Dulbecco's modified Eagle's medium supplemented with 10% ESC-qualified Fetal Bovine Serum (FBS) (Stem Cell Technologies, Vancouver, Va.), pyruvate (Stem Cell Technologies, stock solution diluted 1:100), 2 mM L-glutamine, nonessential amino acids (Stem Cell Technologies, stock solution diluted 1:100), 100 IU/mL penicillin, 0.1 mg/mL streptomycin, and leukemia inhibitory factor (LIF) (Stem Cell Technologies). To induce differentiation, EBs were formed from undifferentiated mESCs in hanging drops of 400 cells in 20 μL of medium without LIF. After 5 days in suspension, EBs were plated on gelatin-coated dishes and cultured in cardiomyocyte-differentiation medium (Iscove's modified Eagle's medium, supplemented with 15% FBS, 2 mM L-glutamine, 5×10^−5 M β-mercaptoethanol, nonessential aminoacids, 100 IU/mL penicillin, 0.1 mg/mL streptomycin).
# Statin Treatment. […] The inhibition of endogenous cholesterol synthesis was the mechanism used for analyzing the effect of endogenous cholesterol depletion on EB differentiation. By days 8 through 12 after plating, spontaneously contracting cell clusters could be observed within the EB outgrowths. Culture media from both simvastatin-treated and untreated cells were changed each day after day 3.
# Spontaneous cardiac differentiation of mouse embryonic stem cells (mESCs) was assessed in vitro as the presence of rhythmically beating […] (EB) outgrowth. […] Thereafter, EB outgrowths were counted periodically under the inverted microscope equipped with a digital video camera, to determine whether or not they contained beating foci at different time points (days 3, 5, 7, 10, 12, and 14). At approximately day 7, contracting areas began to appear. […] Concomitant with the increased number of beating EBs, the size of the beating area for simvastatin-treated EBs increased 2-fold (evaluated at day 12) compared to that of untreated control EBs, a significant augmentation (p<0.05) (FIG. 22B).
# [4] = test system: IκBα; experiment: Immunoblotting for ser32 phosphorylated IκBα in H9c2 cells; format: cell-based, rat; conditions: 24 h
# Protocol: Immunoreactive bands were quantified by densitometry (Panel B).
# Immunoblotting. Total proteins were isolated from rat cardiac myoblasts (H9c2 cells) or embryonic stem cells in an ice-cold lysis buffer containing 10 mmol/L Tris (tris(hydroxymethyl)aminomethane) (pH 7.4), 1% sodium dodecyl sulfate (SDS) and 1× protease inhibitor (1 mmol/L sodium orthovanadate). Proteins (15 μg/lane) were separated under the reducing conditions (125 mM Tris pH 6.8, 4% SDS, 10% glycerol, 0.006% bromophenol blue, 2% β-mercaptoethanol) by electrophoresis onto 5-10% SDS-polyacrylamide gel and electro-blotted to nitrocellulose membranes (Osmonics, Westborough, Mass.). The membranes were reversibly stained with Ponceau red (Sigma) to verify equal protein loading and/or transfer. […] Intensity of each immunoreactive protein band was quantified by densitometric analysis. […]
# [5] = test system: iNOS; experiment: Nitrite production (Griess reaction) in H9c2 cardiac myoblasts; format: cell-based, rat; conditions: for effect on nitrite production in cells treated with simvastatin plus IL-1α: added to simvastatin + IL-1α 20 ng/mL
# Protocol: Cell cultures. H9c2 cells purchased from American Type Culture Collection (ATCC, Rockville, Md.) are spontaneously immortalized ventricular myoblasts from the rat embryo, with preservation of several electrical and biochemical characteristics found in adult cardiomyocytes. […] After certain time intervals, 100 μL/well culture media were collected for determination of nitrite production. Assay for NO Production. The activity of iNOS was determined in the culture medium by assaying nitrites, taken as an index of NO production, using the Griess reagent (1% sulphanilic acid and 0.1% N-[1-naphtyl] ethylenediamine-HCl in 5% phosphoric acid) as reported previously (4,18,19). Equal volumes of medium and Griess reagent were mixed, and the purple products quantified spectrophotometrically at 550 nm. Nitrite concentrations were determined from a linear standard curve constructed with known concentrations of sodium nitrite (0 to 40 μmol/L nitrite). Nitrite Assays. Nitrite, a stable end-product of nitric oxide, was measured by using Griess reagent (1% sulphanilic acid and 0.1% N-[1-naphtyl] ethylenediamine-HCl in 5% phosphoric acid). Equal volumes of medium and Griess reagent were mixed, and the resulting purple product quantified by spectrophotometric assay at 550 nm. Nitrite concentrations were calculated from a linear standard curve constructed with known concentrations of sodium nitrite (0-14 μmol/L nitrite) (19).
# [6] = animals; cited from earlier work
# [7] = test system: mouse peritoneal macrophages; experiment: TUNEL staining of acLDL-loaded mouse peritoneal macrophages; format: cell-based; conditions: for number of TUNEL positive cells: acLDL-preloaded macrophages, agent alone, over incubation time
# Protocol: FIG. 15 is a graph showing TUNEL staining of mouse peritoneal macrophages. Macrophages loaded with acLDL were treated with CP-113,818 (▪), CP-113,818 plus U18666A (♦), or U18666A in medium containing 0.2% BSA (□). After treatment the cells were fixed and nuclear DNA fragments were labeled using a fluorescent TUNEL assay.
# It was tested whether cholesterol accumulation can induce apoptosis in cells treated with the acyl coenzyme-A:cholesterol acyltransferase (ACAT) inhibitor CP-113,818. In situ labeling of DNA fragments were analyzed in murine macrophages treated with the inhibitors using the TUNEL technique. […] Few TUNEL positive cells were detected in untreated control and in cultures treated with CP-113,818 plus U18666A for 24 h. Thus, inhibition of cholesterol transport with U18666A blocked the apoptotic effect of the ACAT inhibitor.
# [8] = test system: NF-κB p65/RelA; experiment: Immunoblotting for p65/RelA subunit of NF-κB, total cellular or nuclear proteins of H9c2 cells; format: cell-based, rat; conditions: Y-27632 10^−4 mol/L
# [9] = test system: hESC-derived EB; experiment: hESC embryoid body formation with proteasomal inhibitor; format: cell-based, human; conditions: MG132 at 100 nm in hanging drops, then regular culture 1-2 days
# Protocol: FIG. 13 is a pair of photomicrographs showing hESC-derived EB after treatment with MG132 for 2 days. a, untreated and b, treated.
# To determine whether protein ubiquitination has any impact on EB formation, hESCs were cultured in hanging-drops with the proteasomal inhibitor MG132 at 100 nm, and then plated in regular culture for 1-2 days.
# [10] = test system: Rho kinase; conditions: cited from earlier work
structure (smiles),measurement,setting,value
CC(C)CCC[C@@H](C)[C@H]1CC[C@H]2[C@@H]3CC=C4C[C@@H](O)CC[C@]4(C)[C@H]3CC[C@]12C [cholesterol],effect of exogenous cholesterol on the statin effect on iNOS expression,[1],does not prevent the statin effect
CC(C)NCC(O)COc1cccc2ccccc12 (stereo not drawn) [propanolol],effect on isoproterenol stimulation of contraction,[2]; propanolol 25 ng/ml with isoproterenol 10 ng/ml,almost abolished the isoproterenol stimulatory effect
CCC(C)(C)C(=O)O[C@H]1C[C@@H](C)C=C2C=C[C@H](C)[C@H](CC[C@@H]3C[C@@H](O)CC(=O)O3)[C@H]21 [simvastatin],"size of the beating area, increase compared to untreated control EBs",[3],2 fold
same,percentage of beating EB outgrowths,"[3]; simvastatin, untreated control 18±0.1%",42±0.1%
same,concentration giving the highest levels of phosphorylated IκBα,[4],10^−7 mol/L
same,lowest concentration achieving the inhibitory effect on iNOS expression,"[1]; H9c2, cytokine-stimulated",10^−8 mol/L
"CC(C)=CCC/C(C)=C/CC/C(C)=C/CC/C(C)=C/COP(=O)(O)OP(=O)(O)O [GGPP, geranylgeranylpyrophosphate]",effect on nitrite production in cells treated with simvastatin plus IL-1α,[5],attenuates the simvastatin inhibitory effect; also recorded: reversed the simvastatin-mediated suppression
same,effect on simvastatin inhibition of cytokine-induced iNOS protein expression,[1]; H9c2,reversed the simvastatin-mediated suppression; also recorded: prevented the inhibitory effect of simvastatin; also recorded: attenuates the simvastatin inhibitory effect
O=C(O)c1ccc(CCN2CCN(C/C=C/c3ccc(Cl)cc3)CC2)cc1 [BM 15766],teratogenic effect,[6],holoprosencephalic brain anomalies
CCN(CC)CCOc1ccc(C(O)(Cc2ccc(Cl)cc2)c2ccc(C)cc2)cc1 (stereo not drawn) [triparanol],teratogenic effect,[6],holoprosencephalic brain anomalies
"CCCCCCCC[C@H](SCCCCCC)C(=O)Nc1c(SC)cc(C)nc1SC [CP-113,818]",number of TUNEL positive cells,[7],increase in the number of TUNEL positive cells
C[C@@H](N)[C@H]1CC[C@H](C(=O)Nc2ccncc2)CC1 [Y-27632],nuclear NF-κB (p65) translocation in presence of IL-1α,[8],no major effect on the nuclear NF-κB translocation
same,nitrite production (iNOS activity) in cytokine-treated cells,"[5]; IL-1α, Y-27632 10^−6 to 10^−5 mol/L, no simvastatin",enhances NO production; also recorded: dose-dependently increased the iNOS activity
same,effect on nitrite production in cells treated with simvastatin plus IL-1α,[5],reversal of the statin-induced nitrite reduction; also recorded: reversed the statin inhibitory effect on iNOS activities
same,effect on simvastatin inhibition of cytokine-induced iNOS protein expression,[1]; H9c2,almost abolished the inhibitory effect of simvastatin
same,cytokine-induced iNOS protein expression in the absence of simvastatin,"[1]; H9c2, cytokine-stimulated, no simvastatin",did not alter cytokine-induced iNOS protein expression
"CC(C)=CCC/C(C)=C/CC/C(C)=C/COP(=O)(O)OP(=O)(O)O [FPP, farnesylpyrophosphate]",effect on nitrite production in cells treated with simvastatin plus IL-1α,[5],did not alter nitrite accumulation
CCN(CC)CCO[C@H]1CC[C@@]2(C)C(=CC[C@@H]3[C@@H]2CC[C@]2(C)C(=O)CC[C@@H]32)C1 [U18666A],"number of TUNEL positive cells with CP-113,818 co-treatment","[7]; U18666A simultaneously with CP-113,818",greatly reduced
same,number of TUNEL positive cells,[7],no effect on the number of cells bearing this marker of apoptosis
Clc1ccccc1CNCC1CCC(CNCc2ccccc2Cl)CC1 (stereo not drawn) [AY 9944],teratogenic effect,[6],holoprosencephalic brain anomalies
CC(C)NCC(O)c1ccc(O)c(O)c1 (stereo not drawn) [isoproterenol],contraction of beating myocytes,"[2]; mESC-derived EBs, isoproterenol 10 ng/ml",marked increased contraction in both frequency and ampltitute
CC(C)C[C@@H](C=O)NC(=O)[C@H](CC(C)C)NC(=O)[C@H](CC(C)C)NC(=O)OCc1ccccc1 [MG132] (Cbz-Leu-Leu-Leu-aldehyde),EB morphology / cell differentiation,[9],spread out and surrounded by differentiated cells
same,EB morphology / cell differentiation,[9]; listed as MG-132,helped the cell differentiation
CC(C)c1c(C(=O)Nc2ccccc2)c(-c2ccccc2)c(-c2ccc(F)cc2)n1CC[C@@H](O)C[C@@H](O)CC(=O)O [atorvastatin],Rho kinase activity,[10],inhibit the Rho kinase activity
